Laboratory results published in patent US8217167B2, “Phenanthrylphenol linked pyrrolo [2, l-c] [l, 4] benzodiazepine hybrids as potential antitumour agents and process for the preparation thereof” (Council of Scientific & Industrial Research, priority 2008, dated 2012).

How the values were obtained:
[1] = test system: duplex-form calf thymus DNA (CT-DNA); assay: Thermal denaturation studies with calf thymus DNA; assay type: binding; settings: [PBD]:[DNA] molar ratio 1:5, CT-DNA 100 μM, ligand 20 μM, sodium phosphate buffer pH 7.00; for ΔTm after incubation at 37° C. for 0 h: 0 h incubation at 37° C.; for ΔTm after incubation at 37° C. for 18 h: 18 h incubation at 37° C.
Procedure: Compounds have been subjected to thermal denaturation studies with duplex-form calf thymus DNA (CT-DNA) using a modification of a reported procedure (Newman, M. S. Carcinog-compr. Surv. 1976, 1, 203; (b) Hecht, S. S.; Loy, M.; Hoffman, Carcinog-compr. Surv. 1976, 1, 325). Working solutions in aqueous buffer (10 mM NaH2PO4/Na2HPO4, 1 mM Na2EDTA, pH 7.00+0.01) containing CT-DNA (100 μm in phosphate) and the PBD (20 μm) have been prepared by addition of concentrated PBD solutions in DMSO to obtain a fixed [PBD]/[DNA] molar ratio of 1:5. The DNA-PBD solutions have been incubated at 37° C. for 0 and 18 h prior to analysis. Samples have been monitored at 260 nm using a Beckman DU-800 spectrophotometer fitted with high performance temperature controller, and heated at 1° C. min^−1 in the 40-110° C. range. DNA helix→coil transition temperatures (Tm) have been obtained from the maxima in the d(A260)/dT derivative plots. Drug-induced alterations in DNA melting behavior are given by: ΔTm=Tm(DNA+PBD)−Tm(DNA alone), where the Tm value for the PBD-free CT-DNA is 69.1±0.01.
The DNA binding activity for these new C8-linked phenanthrylphenol-PBD hybrids has been examined by thermal denaturation studies using calf thymus (CT) DNA. […] The data for the compounds 6a-c is included in Table 1 for comparison.

Colon 502713 = assay type: cell-based; settings: human
Text: (§1) The compounds 6a-c (n=1-3) were examined for preliminary in vitro cytotoxicity on six cell lines, among these compound's 6a has shown promising activity as shown in Table 2 and was further taken up detailed in vitro anticancer activity at the National Cancer Institute, Maryland, USA.

Colon HCT-15 = assay type: cell-based; settings: human
Text: as §1

Liver HEP-2 = assay type: cell-based; settings: human
Text: as §1

Lung A-549 = assay type: cell-based; settings: human
Text: as §1

Neuroblastoma IMR-32 = assay type: cell-based; settings: human
Text: as §1

Ovary OVCAR-5 = assay type: cell-based; settings: human
Text: as §1

[2] = test system: sixty human tumour cells derived from nine cancer panels; assay: NCI in vitro anticancer activity (SRB assay), mean graph midpoints over sixty cell lines; assay type: cell-based
Procedure: (§2) The compound 6a was evaluated for in vitro anticancer activity against sixty human tumour cells derived from nine cancer panels (leukemia, non-small-cell lung, colon, CNS, melanoma, ovarian, prostate, renal and breast cancer) as shown in Table 4. For compound 6a, dose response curves for each cell line were measured at a minimum of five concentrations at 10 fold dilutions. A protocol of 48 h continuous drug exposure was used and a sulforhodamine B (SRB) protein assay was used to estimate cell viability or growth. The concentration causing 50% cell growth inhibition (GI50), total cell growth inhibition (TGI 0% growth) and 50% cell death (LC50, […]) compared with the control was calculated.

[3] = test system: Leukemia cancer cell lines; assay: NCI in vitro anticancer activity (SRB assay), Leukemia panel; assay type: cell-based; settings: Homo sapiens
Procedure: as §2
(§3) Each cancer type represents the average of six to nine different cancer cell lines.

[4] = test system: Non-small-cell-lung cancer cell lines; assay: NCI in vitro anticancer activity (SRB assay), Non-small-cell-lung panel; assay type: cell-based; settings: Homo sapiens
Procedure: as §2, §3

Colon cancer cell lines = assay: NCI in vitro anticancer activity (SRB assay), Colon panel; assay type: cell-based; settings: Homo sapiens
Procedure: as §2, §3

CNS cancer cell lines = assay: NCI in vitro anticancer activity (SRB assay), CNS panel; assay type: cell-based; settings: Homo sapiens
Procedure: as §2, §3

[5] = test system: Melanoma cancer cell lines; assay: NCI in vitro anticancer activity (SRB assay), Melanoma panel; assay type: cell-based; settings: Homo sapiens
Procedure: as §2, §3

[6] = test system: Ovarian cancer cell lines; assay: NCI in vitro anticancer activity (SRB assay), Ovarian panel; assay type: cell-based; settings: Homo sapiens
Procedure: as §2, §3

Renal cancer cell lines = assay: NCI in vitro anticancer activity (SRB assay), Renal panel; assay type: cell-based; settings: Homo sapiens
Procedure: as §2, §3

[7] = test system: Prostate cancer cell lines; assay: NCI in vitro anticancer activity (SRB assay), Prostate panel; assay type: cell-based; settings: Homo sapiens
Procedure: as §2, §3

Breast cancer cell lines = assay: NCI in vitro anticancer activity (SRB assay), Breast panel; assay type: cell-based; settings: Homo sapiens
Procedure: as §2, §3

[8] = 48 h, read-out: Log10 LC50 (concentration in mol/L causing 50% lethality) (converted)

## COc1cc2c(cc1OCCCOc1ccc(-c3cc4ccccc4c4ccccc34)cc1)N=C[C@@H]1CCCN1C2=O [Compound 6a, (11aS)-7-methoxy-8-3-[4-(9-phenanthryl)phenoxy]propoxy-2,3,5,11a-tetrahydro-1H-benzo[e]pyrrolo[1,2-a][1,4]diazepin-5-one]
[1]
  ΔTm after incubation at 37° C. for 0 h: 1.0 °C
  ΔTm after incubation at 37° C. for 18 h: 1.8 °C
Colon 502713
  Preliminary in vitro cytotoxicity data, Colon 502713: 69
Colon HCT-15
  Preliminary in vitro cytotoxicity data, Colon HCT-15: 99
Liver HEP-2
  Preliminary in vitro cytotoxicity data, Liver HEP-2: 58
Lung A-549
  Preliminary in vitro cytotoxicity data, Lung A-549: 88
Neuroblastoma IMR-32
  Preliminary in vitro cytotoxicity data, Neuroblastoma IMR-32: 85
Ovary OVCAR-5
  Preliminary in vitro cytotoxicity data, Ovary OVCAR-5: 98
[2]; 48 h continuous drug exposure, SRB assay, mean over human tumour cell lines
  Log10 TGI mean graph midpoint (MG_MID): −5.76
[2]; 48 h continuous drug exposure, SRB assay, mean over human tumour cell lines, read-out: Log10 GI50 mean graph midpoint (MG_MID) (converted)
  GI50: 525 nM
[2]; Homo sapiens, 48 h, read-out: Log10 LC50 mean graph midpoint (MG_MID) (converted)
  CC50: 5500 nM
[3]; [8]
  CC50: 15100 nM
[3]; Leukemia panel average, 48 h exposure, SRB, read-out: Log10 GI50 (concentration in mol/L) (converted)
  GI50: 195 nM
[4]; [8]
  LC50: 5370 nM
[4]; Non-small-cell-lung panel average, 48 h exposure, SRB, read-out: Log10 GI50 (concentration in mol/L) (converted)
  GI50: 776 nM
Colon cancer cell lines; [8]
  CC50: 4900 nM
Colon cancer cell lines; Colon panel average, 48 h exposure, SRB, read-out: Log10 GI50 (concentration in mol/L) (converted)
  GI50: 776 nM
CNS cancer cell lines; [8]
  LC50: 4680 nM
CNS cancer cell lines; CNS panel average, 48 h exposure, SRB, read-out: Log10 GI50 (concentration in mol/L) (converted)
  GI50: 813 nM
[5]; [8]
  LC50: 4680 nM
[5]; Melanoma panel average, 48 h exposure, SRB, read-out: Log10 GI50 (concentration in mol/L) (converted)
  GI50: 692 nM
[6]; [8]
  CC50: 3720 nM
[6]; Ovarian panel average, 48 h exposure, SRB, read-out: Log10 GI50 (concentration in mol/L) (converted)
  GI50: 501 nM
Renal cancer cell lines; [8]
  LC50 (50% lethal concentration): 3630 nM
Renal cancer cell lines; Renal panel average, 48 h exposure, SRB, read-out: Log10 GI50 (concentration in mol/L) (converted)
  GI50: 490 nM
[7]; [8]
  LC50 (concentration causing 50% tumour cell death): 3890 nM
[7]; Prostate panel average, 48 h exposure, SRB, read-out: Log10 GI50 (concentration in mol/L) (converted)
  GI50: 398 nM
Breast cancer cell lines; [8]
  LC50 (50% lethal concentration): 8710 nM
Breast cancer cell lines; Breast panel average, 48 h exposure, SRB, read-out: Log10 GI50 (concentration in mol/L) (converted)
  GI50: 339 nM

## COc1cc2c(cc1OCCCCOc1ccc(-c3cc4ccccc4c4ccccc34)cc1)N=C[C@@H]1CCCN1C2=O [Compound 6b, (11aS)-7-methoxy-8-4-[4-(9-phenanthryl)phenoxy]butoxy-2,3,5,11a-tetrahydro-1H-benzo[e]pyrrolo[1,2-a][1,4]diazepin-5-one]
[1]
  ΔTm after incubation at 37° C. for 0 h: 0.3 °C
  ΔTm after incubation at 37° C. for 18 h: 0.5 °C
Colon 502713
  Preliminary in vitro cytotoxicity data, Colon 502713: 72
Colon HCT-15
  Preliminary in vitro cytotoxicity data, Colon HCT-15: 77
Liver HEP-2
  Preliminary in vitro cytotoxicity data, Liver HEP-2: 49
Lung A-549
  Preliminary in vitro cytotoxicity data, Lung A-549: 50
Neuroblastoma IMR-32
  Preliminary in vitro cytotoxicity data, Neuroblastoma IMR-32: 67
Ovary OVCAR-5
  Preliminary in vitro cytotoxicity data, Ovary OVCAR-5: 93

## COc1cc2c(cc1OCCCCCOc1ccc(-c3cc4ccccc4c4ccccc34)cc1)N=C[C@@H]1CCCN1C2=O [Compound 6c, (11aS)-7-methoxy-8-(5-[4-(9-phenanthryl)phenoxy]pentyloxy)-2,3,5,11a-tetrahydro-1H-benzo[e]pyrrolo[1,2-a][1,4]diazepin-5-one]
[1]
  ΔTm after incubation at 37° C. for 0 h: 0.1 °C
  ΔTm after incubation at 37° C. for 18 h: 0.2 °C
Colon 502713
  Preliminary in vitro cytotoxicity data, Colon 502713: 74
Colon HCT-15
  Preliminary in vitro cytotoxicity data, Colon HCT-15: 79
Liver HEP-2
  Preliminary in vitro cytotoxicity data, Liver HEP-2: 65
Lung A-549
  Preliminary in vitro cytotoxicity data, Lung A-549: 36
Neuroblastoma IMR-32
  Preliminary in vitro cytotoxicity data, Neuroblastoma IMR-32: 73
Ovary OVCAR-5
  Preliminary in vitro cytotoxicity data, Ovary OVCAR-5: 98

## COc1cc2c(cc1O)N=CC1CCCN1C2=O (centres unmarked) [DC-81, reference compound]
[1]
  ΔTm after incubation at 37° C. for 0 h: 0.3 °C
  ΔTm after incubation at 37° C. for 18 h: 0.7 °C
